Reference: patent publication US11524943B1 (Vivace Therapeutics, Inc., priority 2017, dated 2022)

tested on: HEK293T cells stably transfected with 8×TBD luciferase reporter and pRLTK; assay: YAP Reporter Assay (8×TBD firefly luciferase reporter); type: cell-based; conditions: Homo sapiens, HEK-293T; HEK293T 8×TBD reporter cells, 24-hr incubation, top concentration 3 μM, 1:3 dilution, 10 points
Description: HEK293T cells stably transfected with 8×TBD luciferase reporter and pRLTK in 384-well plates were treated with the test compounds, starting from 3 μM (final concentration in assay plate), 1:3 dilution, and 10 points in quadruplicates. Post 24-hr incubation with compounds at 37° C. and 5% CO2, cells were lysed and 8×TBD-driven firefly luciferase and control TK-driven renilla luciferase activities were measured using Promega Dual-Luciferase Reporter Assay System.
Reagents: The reagents used for this study are: DMEM: Invitrogen #11960077, Dual-Glo Luciferase Assay System: Promega-E2980, Puromycin Dihydrochloride: Invitrogen-A1113803, 384-well plate: PerkinElmer-6007480, L-GLUTAMINE: Invitrogen-25030164, Hygromycin B: Invitrogen-10687010, and Penicillin-Streptomycin: Merk-TMS-AB2-C
Media: The media used for this assay were: Culture Medium: DMEM+1 ug/mL puromycin+200 ug/mL hygromycin (with 10% FBS+1 mM L-glutamine); and Assay Medium: DMEM (with 10% FBS+1 mM L-glutamine+1×P/S).
Cell Plating: The appropriate media was warmed at 37° C. by water bath: Culture Medium, Assay Medium, 1*D-PBS, 0.05% trypsin-EDTA. The cells were trypsinized after removing all media, then washed with 1* sterile D-PBS and then with 2 ml 0.05% trypsin-EDTA. The cells were then incubated at RT for one minute. Then 10 ml/75 cm2 flask Assay Medium was added to each flask. Using a 10 ml pipette, the cells were then gently resuspended in the media, until the clumps completely disappeared. The cells were then transferred into 50 ml centrifuge tubes and were centrifuged at 800 rpm for 5 mins. The medium was removed and the cells were resuspended with Assay Medium. An aliquot of cells was used to count the cell density (cells/ml). The cell suspension was then diluted with Assay Medium to a concentration of 6×10^4 cells/ml. 50 ul cells suspension was then plated to 384-well plate (PerkinElmer-6007480), 3×10^3 cells/well and the cells were incubated in an incubator at 37° C., 5% CO2.
Compound Treatment: In the afternoon (incubation of the plate with 3-4 hrs), the test compounds were added by Echo, starting from 3 uM (final concentration in the assay plate), 1:3 dilution, 10 points, quadruplicates. The plate was placed at 37° C., 5% CO2 incubator for 24 hrs.
Detection: The Dual-Glo Luciferase Reagent was prepared by transferring the contents of one bottle of Dual-Glo Luciferase Buffer to one bottle of Dual-Glo Luciferase Substrate to create the Dual-Glo Luciferase Reagent. Mixing was performed by inversion until the substrate was thoroughly dissolved. After mixing, the reagent was aliquoted into 15 ml tubes. In the afternoon (24 hrs post compound treatment), the DMEM+ medium in the 384 well plates were aspirated by Microplate Washer.
Measuring firefly luciferase activity: 20 ul Dual-Glo Luciferase Reagent was added to the 384-well plates. The plates were protected from light to prevent interference with the assay. The plates were shaken for 1 min followed centrifuging plates at 1000 rpm for 30 seconds. After waiting at least 10 minutes, the firefly luminescence was measured by Envision.
Measuring renilla luciferase activity: 20 ul Stop-Glo Reagent was added to the 384-well plates. The plates were shaken for 1 min and then centrifuged at 1000 rpm for 30 seconds. After waiting at least 10 minutes, the renilla luminescence was measured by Envision.
Compound IC50 and maximum inhibition on the firefly luciferase and renilla luciferase activities were reported separately.

Compound | IC50 [nM]
COC(=O)c1ccc(Nc2ccc(C(F)(F)F)cc2)c(-c2nnn(C)n2)c1 [Compound 1, methyl 3-(2-methyl-2H-tetrazol-5-yl)-4-((4-(trifluoromethyl)phenyl)amino)benzoate] | ≤ 100
COC(=O)c1ccc(Nc2cccc(C(F)(F)F)c2)c(-c2nnn(C)n2)c1 [Compound 2, methyl 3-(2-methyl-2H-telrazol-5-yl)-4-((3-(trifluoromethyl)phenyl)amino)benzoate] | ≤ 100
Cn1nnc(-c2cc(C(=O)O)ccc2Nc2ccc(C(F)(F)F)cc2)n1 [Compound 3, 3-(2-methyl-2H-tetrazol-5-yl)-4-((4-(trifluoromethyl)phenyl)amino) benzoic acid] | ≤ 100
Cn1nnc(-c2cc(C(=O)O)ccc2Nc2cccc(C(F)(F)F)c2)n1 [Compound 4, 3-(2-methyl-2H-tetrazol-5-yl)-4-((3-(trifluoromethyl)phenyl)amino) benzoic acid] | ≤ 100
CNC(=O)c1ccc(Nc2cccc(C(F)(F)F)c2)c(-c2nnn(C)n2)c1 [Compound 5, N-methyl-3-(2-methyl-2H-tetrazol-5-yl)-4-((3-(trifluoromethyl)phenyl)amino) benzamide] | ≤ 100
Cn1nnc(-c2cc(C(N)=O)ccc2Nc2cccc(C(F)(F)F)c2)n1 [Compound 6, 3-(2-methyl-2H-tetrazol-5-yl)-4-((3-(trifluoromethyl)phenyl)amino) benzamide] | ≤ 100
Cn1nnc(-c2cc(C(N)=O)ccc2Nc2ccc(C(F)(F)F)cc2)n1 [Compound 7, 3-(2-methyl-2H-tetrazol-5-yl)-4-((4-(trifluoromethyl)phenyl)amino) benzamide] | ≤ 100
CNC(=O)c1ccc(Nc2ccc(C(F)(F)F)cc2)c(-c2nnn(C)n2)c1 [Compound 8, N-methyl-3-(2-methyl-2H-tetrazol-5-yl)-4-((4-(trifluoromethyl)phenyl)amino) benzamide] | ≤ 100
CCNC(=O)c1ccc(Nc2ccc(C(F)(F)F)cc2)c(-c2nnn(C)n2)c1 [Compound 10, N-ethyl-3-(2-methyl-2H-tetrazol-5-yl)-4-((4-(trifluoromethyl)phenyl)amino) benzamide] | ≤ 100
CC(C)NC(=O)c1ccc(Nc2ccc(C(F)(F)F)cc2)c(-c2nnn(C)n2)c1 [Compound 11, N-isopropyl-3-(2-methyl-2H-tetrazol-5-yl)-4-((4-(trifluoromethyl)phenyl)amino) benzamide] | ≤ 100
COC(=O)c1ccc(Nc2ccc(C(=O)NC(C)C)cc2)c(-c2nnn(C)n2)c1 [Compound 12, methyl 4-((4-(isopropylcarbamoyl)phenyl)amino)-3-(2-methyl-2H-tetrazol-5-yl)benzoate] | 1000 to 3000
CN(C)C(=O)c1ccc(Nc2ccc(C(F)(F)F)cc2)c(-c2nnn(C)n2)c1 [Compound 13, N,N-dimethyl-3-(2-methyl-2H-tetrazol-5-yl)-4-((4-(trifluoromethyl)phenyl)amino) benzamide] | 100 to 1000
Cn1nnc(-c2cc(C(=O)NS(C)(=O)=O)ccc2Nc2ccc(C(F)(F)F)cc2)n1 [Compound 15, 3-(2-methyl-2H-tetrazol-5-yl)-N-(methylsulfonyl)-4-((4-(trifluoromethyl)phenyl)amino) benzamide] | ≤ 100
CCN(CC)C(=O)c1ccc(Nc2ccc(C(F)(F)F)cc2)c(-c2nnn(C)n2)c1 [Compound 17, N,N-diethyl-3-(2-methyl-2H-tetrazol-5-yl)-4-((4-(trifluoromethyl)phenyl)amino) benzamide] | 100 to 1000
CN(C)C(=O)c1ccc(Nc2cccc(C(F)(F)F)c2)c(-c2nnn(C)n2)c1 [Compound 19, N,N-dimethyl-3-(2-methyl-2H-tetrazol-5-yl)-4-((3-(trifluoromethyl)phenyl)amino) benzamide] | 100 to 1000
CCN(CC)C(=O)c1ccc(Nc2cccc(C(F)(F)F)c2)c(-c2nnn(C)n2)c1 [Compound 20, N,N-diethyl-3-(2-methyl-2H-tetrazol-5-yl)-4-((3-(trifluoromethyl)phenyl)amino) benzamide] | 100 to 1000
CC(C)NC(=O)c1ccc(Nc2cccc(C(F)(F)F)c2)c(-c2nnn(C)n2)c1 [Compound 21, N-isopropyl-3-(2-methyl-2H-tetrazol-5-yl)-4-((3-(trifluoromethyl)phenyl)amino) benzamide] | ≤ 100
CCNC(=O)c1ccc(Nc2cccc(C(F)(F)F)c2)c(-c2nnn(C)n2)c1 [Compound 22, N-ethyl-3-(2-methyl-2H-tetrazol-5-yl)-4-((3-(trifluoromethyl)phenyl)amino) benzamide] | ≤ 100
Cn1nnc(-c2cc(C(=O)NS(C)(=O)=O)ccc2Nc2cccc(C(F)(F)F)c2)n1 [Compound 23, 3-(2-methyl-2H-tetrazol-5-yl)-N-(methylsulfonyl)-4-((3-(trifluoromethyl)phenyl)amino) benzamide] | ≤ 100
COC(=O)c1ccc(Nc2ccc(C(F)(F)F)cc2)c(-c2nnn(Cc3ccccc3F)n2)c1 [Compound 24, methyl 3-(2-(2-fluorobenzyl)-2H-tetrazol-5-yl)-4-((4-(trifluoromethyl)phenyl)amino) benzoate] | 100 to 1000
O=C(O)c1ccc(Nc2ccc(C(F)(F)F)cc2)c(-c2nnn(Cc3ccccc3F)n2)c1 [Compound 25, 3-(2-(2-fluorobenzyl)-2H-tetrazol-5-yl)-4-((4-(trifluoromethyl)phenyl)amino) benzoic acid] | ≤ 100
COC(=O)c1ccc(Nc2cccc(C(F)(F)F)c2)c(-c2nnn(Cc3ccccc3F)n2)c1 [Compound 26, methyl 3-(2-(2-fluorobenzyl)-2H-tetrazol-5-yl)-4-((3-(trifluoromethyl)phenyl)amino) benzoate] | 100 to 1000
O=C(O)c1ccc(Nc2cccc(C(F)(F)F)c2)c(-c2nnn(Cc3ccccc3F)n2)c1 [Compound 27, 3-(2-(2-fluorobenzyl)-2H-tetrazol-5-yl)-4-((3-(trifluoromethyl)phenyl)amino) benzoic acid] | ≤ 100
Cn1cnc(-c2cc(C(=O)O)ccc2Nc2ccc(C(F)(F)F)cc2)c1 [Compound 28, 3-(1-methyl-1H-imidazol-4-yl)-4-((4-(trifluoromethyl)phenyl)amino) benzoic acid] | ≤ 100
CC(C)NC(=O)c1ccc(Nc2ccc(C(F)(F)F)cc2)c(-c2ccnc(N)c2)c1 [Compound 29, 3-(2-aminopyridin-4-yl)-N-isopropyl-4-((4-(trifluoromethyl)phenyl)amino) benzamide] | 100 to 1000
Nc1cc(-c2cc(C(=O)O)ccc2Nc2ccc(C(F)(F)F)cc2)ccn1 [Compound 30, 3-(2-aminopyridin-4-yl)-4-((4-(trifluoromethyl)phenyl)amino) benzoic acid] | ≤ 100
COC(=O)c1ccc(Nc2ccc(C(F)(F)F)cc2)c(-c2cn(C)cn2)c1 [Compound 33, methyl 3-(1-methyl-1H-imidazol-4-yl)-4-((4-(trifluoromethyl)phenyl)amino)benzoate] | ≤ 100
COC(=O)c1ccc(Nc2ccc(C(F)(F)F)cc2)c(-c2ccnc(N)c2)c1 [Compound 34, methyl 3-(2-amino-4-pyridyl)-4-[4-(trifluoromethyl)anilino] benzoate] | ≤ 100
CC(C)NC(=O)c1ccc(Nc2ccc(C(F)(F)F)cc2)c(-c2cn(C)cn2)c1 [Compound 36, N-Isopropyl-3-(-methylimidazol-4-yl)-4-[4-(trifluoromethyl)anilino] benzamide] | ≤ 100
